According to patent publication US10392348B2, “2-oxo-3,4-dihydroquinoline compounds as plant growth regulators” (Syngenta Participations AG, priority 2015, dated 2019):
Read-outs that look alike come from different tables or passages of the source.

Experiments:
[1] = tested on: soybean plants (variety S20-G7); assay: Reduced plant water use in soybean (foliar spray, repeated weighing of pots); type: in vivo; conditions: Glycine max, foliar, Table B1, sprayed at 500 μM, vs negative control
Procedure, shortened: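 Daytime water use was tracked by weighing pots of 12-day-old soybean after foliar spray of compound formulated as EC plus EXTRAVON 1 g/20 L. Cumulative total (0-2.5 DAA) sums a.m. and p.m. readings; values baseline-adjusted by covariance analysis against formulation-only negative control.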

[2] = tested on: corn plants (variety NK OCTET); assay: Reduced plant water use in corn (foliar spray, repeated weighing of pots); type: in vivo; conditions: Zea mays, corn plants sprayed at 500 μM, average of 6 pots
Procedure, shortened: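 Water use was summed over 0–2.5 days after application, from repeated day-time weighings of pots and corrected by ANCOVA for pre-application baseline. Plants, 12 days old, received foliar EC sprays diluted with water plus 0.4% rape seed methyl ester adjuvant.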

[3] = 0 h, 0 DAA a.m. (10:30-12:50), read-out: % WU 0 DAA AM
[4] = 24 h, 1 DAA a.m. (7:30-12:50), read-out: % WU 1DAA AM
[5] = 24 h, 1 DAA p.m. (14:00-19:50), read-out: % WU 1DAA PM
[6] = 48 h, 2 DAA a.m. (07:30-12:50), read-out: % WU 2 DAA AM
[7] = 48 h, 2 DAA p.m. (14:00-19:50), read-out: % WU 2 DAA PM
[8] = 60 h, cumulative total WU (0-2.5 DAA), read-out: % WU Total 0 to 2.5 DAA
[9] = 0 h, water use during day time vs negative control, 0 DAA a.m. (10:30-12:50), read-out: % WU 0 DAA AM
[10] = 0 h, water use during day time vs negative control, 0 DAA p.m. (14:00-19:50), read-out: % WU 0DAA PM
[11] = 24 h, water use during day time vs negative control, 1 DAA a.m. (07:30-12:50), read-out: % WU 1DAA AM
[12] = 24 h, water use during day time vs negative control, 1 DAA p.m. (14:00-19:50), read-out: % WU 1DAA PM
[13] = 48 h, water use during day time vs negative control, 2 DAA a.m. (07:30-12:50), read-out: % WU 2 DAA AM
[14] = 48 h, water use during day time vs negative control, 2 DAA p.m. (14:00-19:50), read-out: % WU 2 DAA PM
[15] = 60 h, cumulative total water use 0-2.5 DAA (sum of the time points) vs negative control, read-out: % WU Total 0 to 2.5 DAA

melting point [°C] | SMILES | change in vivo at 500 µM [1, 3] [%] | change in vivo at 500 µM [1, 4] [%] | change in vivo at 500 µM [1, 5] [%] | change in vivo at 500 µM [1, 6] [%] | change in vivo at 500 µM [1, 7] [%] | change in vivo at 500 µM [1, 8] [%] | change in vivo at 500 µM [2, 9] [%] | change in vivo at 500 µM [2, 10] [%] | change in vivo at 500 µM [2, 11] [%] | change in vivo at 500 µM [2, 12] [%] | change in vivo at 500 µM [2, 13] [%] | change in vivo at 500 µM [2, 14] [%] | change in vivo at 500 µM [2, 15] [%]
167 to 168 | CCN1C(=O)CCc2cc(CNS(=O)(=O)c3ccc(F)cc3F)ccc21 [Compound 2.006, N-[(1-ethyl-2-oxo-3,4-dihydroquinolin-6-yl)methyl]-2,4-difluoro-benzenesulfonamide] | -23.4 | -13.8 | -13 | -10.4 | -7.3 | -13.2 | -12.5 | -6.7 | -6.5 | -5.5 | -3 | -3.2 | -5.4
132 to 135 | CCCN1C(=O)CCc2cc(CNS(=O)(=O)CCC(F)(F)F)ccc21 [Compound 3.067, 3,3,3-trifluoro-N-[(2-oxo-1-propyl-3,4-dihydroquinolin-6-yl)methyl]propane-1-sulfonamide] | -28.4 | -19.3 | -17.2 | -13.3 | -9.5 | -17.2 | -14.7 | -10.7 | -12.1 | -11.5 | -9.9 | -10.1 | -11.1
169 to 173 | CCCN1C(=O)CCc2cc(CNS(=O)(=O)c3ccc4ccccc4c3)ccc21 [Compound 3.075, N-[(2-oxo-1-propyl-3,4-dihydroquinolin-6-yl)methyl]naphthalene-2-sulfonamide] | -10.8 | -2.1 | -0.6 | -2.1 | -2 | -3.3 | -9.8 | -7.9 | -8.2 | -6.4 | -4.9 | -3.3 | -6.3
143 to 145 | CCCN1C(=O)CCc2cc(CNS(=O)(=O)c3ccc(Br)cc3)ccc21 [Compound 3.002, 4-bromo-N-[(2-oxo-1-propyl-3,4-dihydroquinolin-6-yl)methyl]benzenesulfonamide] | -22.5 | -13.7 | -9.4 | -6.7 | -4.7 | -11.4 | -16.3 | -12.2 | -13.4 | -10.5 | -9.5 | -7 | -10.9
